Experimental data: patent US20140271831A1, “RACECADOTRIL LIQUID COMPOSITIONS” (McNeil-PPC, Inc., priority 2013, published 2014)

Experiment: Racecadotril and degradation products over time in Acetate and Citrate at pH 3.6, 4.0, 4.5 (untitled table)
Format: physicochemical
Parameters: key to Impurity C / Impurity G: % peak area relative to the Racecadotril peak
Conditions: for RAC: in % (unit assumed)
Description: • 1. Pipet 1 mL of Racecadotril solution into a 100 mL volumetric flask (V.F.) • 2. Dilute to volume with the same buffer used in the solution preparation. • 3. […] Parameters may be modified to optimize chromatography. • The assay of Racecadotril is determined by using the external standard injected. The degradation products levels are determined by % peak area relative to the Racecadotril peak. [table] [table] Mobil Phase A: Phosphate buffer, pH 2.5 (Buffer prep: dissolve 1 g of potassium dihydrogen phosphate in water, adjust to pH 2.5 with phosphoric acid, dilute to 1000 mL with water) Mobil Phase B: 100% Acetonitrile

Structure (SMILES): CC(=O)SCC(Cc1ccccc1)C(=O)NCC(=O)OCc1ccccc1 (racemic) [Racecadotril]
- Benz Alcohol (Acetate, pH 3.6, 1 week): 0.69%
- Impurity C (Acetate, pH 3.6, 1 week): 0.93
- Impurity G (Acetate, pH 3.6, 1 week): 1.17
- Thiorphan (Acetate, pH 3.6, 1 week): 0%
- RAC (Acetate, pH 3.6, 1 week): 97.21
- Benz Alcohol (Acetate, pH 3.6, 2 week): 1.4%
- Impurity C (Acetate, pH 3.6, 2 week): 1.87
- Impurity G (Acetate, pH 3.6, 2 week): 1.74
- Thiorphan (Acetate, pH 3.6, 2 week): 0.11%
- RAC (Acetate, pH 3.6, 2 week): 94.88
- Benz Alcohol (Acetate, pH 3.6, 3 week): 2.13%
- Impurity C (Acetate, pH 3.6, 3 week): 2.78
- Impurity G (Acetate, pH 3.6, 3 week): 1.93
- Thiorphan (Acetate, pH 3.6, 3 week): 0.14%
- RAC (Acetate, pH 3.6, 3 week): 93.01
- Benz Alcohol (Acetate, pH 3.6, 4 week): 2.84%
- Impurity C (Acetate, pH 3.6, 4 week): 3.56
- Impurity G (Acetate, pH 3.6, 4 week): 3
- Thiorphan (Acetate, pH 3.6, 4 week): 0.3%
- RAC (Acetate, pH 3.6, 4 week): 90.15
- Benz Alcohol (Acetate, pH 3.6, 6 week): 4.33%
- Impurity C (Acetate, pH 3.6, 6 week): 5.17
- Impurity G (Acetate, pH 3.6, 6 week): 3.82
- Thiorphan (Acetate, pH 3.6, 6 week): 0.57%
- RAC (Acetate, pH 3.6, 6 week): 85.75
- Benz Alcohol (Acetate, pH 3.6, 8 week): 5.78%
- Impurity C (Acetate, pH 3.6, 8 week): 6.2
- Impurity G (Acetate, pH 3.6, 8 week): 5.28
- Thiorphan (Acetate, pH 3.6, 8 week): 1%
- RAC (Acetate, pH 3.6, 8 week): 80.68
- Benz Alcohol (Acetate, pH 3.6, Initial): 0%
- Impurity C (Acetate, pH 3.6, Initial): 0
- Impurity G (Acetate, pH 3.6, Initial): 0.07
- Thiorphan (Acetate, pH 3.6, Initial): 0%
- RAC (Acetate, pH 3.6, Initial): 99.93
- Benz Alcohol (Acetate, pH 4.0, 1 week): 0.7%
- Impurity C (Acetate, pH 4.0, 1 week): 0.93
- Impurity G (Acetate, pH 4.0, 1 week): 1.36
- Thiorphan (Acetate, pH 4.0, 1 week): 0%
- RAC (Acetate, pH 4.0, 1 week): 97.01
- Benz Alcohol (Acetate, pH 4.0, 2 week): 1.39%
- Impurity C (Acetate, pH 4.0, 2 week): 1.82
- Impurity G (Acetate, pH 4.0, 2 week): 1.7
- Thiorphan (Acetate, pH 4.0, 2 week): 0.7%
- RAC (Acetate, pH 4.0, 2 week): 95.02
- Benz Alcohol (Acetate, pH 4.0, 3 week): 2.09%
- Impurity C (Acetate, pH 4.0, 3 week): 2.83
- Impurity G (Acetate, pH 4.0, 3 week): 2.66
- Thiorphan (Acetate, pH 4.0, 3 week): 0.19%
- RAC (Acetate, pH 4.0, 3 week): 92.23
- Benz Alcohol (Acetate, pH 4.0, 4 week): 2.84%
- Impurity C (Acetate, pH 4.0, 4 week): 3.52
- Impurity G (Acetate, pH 4.0, 4 week): 3.62
- Thiorphan (Acetate, pH 4.0, 4 week): 0.38%
- RAC (Acetate, pH 4.0, 4 week): 89.5
- Benz Alcohol (Acetate, pH 4.0, 6 week): 4.28%
- Impurity C (Acetate, pH 4.0, 6 week): 5.16
- Impurity G (Acetate, pH 4.0, 6 week): 5.67
- Thiorphan (Acetate, pH 4.0, 6 week): 0.71%
- RAC (Acetate, pH 4.0, 6 week): 83.98
- Benz Alcohol (Acetate, pH 4.0, 8 week): 5.37%
- Impurity C (Acetate, pH 4.0, 8 week): 6.2
- Impurity G (Acetate, pH 4.0, 8 week): 8.46
- Thiorphan (Acetate, pH 4.0, 8 week): 1.19%
- RAC (Acetate, pH 4.0, 8 week): 78.53
- Benz Alcohol (Acetate, pH 4.0, Initial): 0%
- Impurity C (Acetate, pH 4.0, Initial): 0
- Impurity G (Acetate, pH 4.0, Initial): 0
- Thiorphan (Acetate, pH 4.0, Initial): 0%
- RAC (Acetate, pH 4.0, Initial): 100
- Benz Alcohol (Acetate, pH 4.5, 1 week): 0.022%
- Impurity C (Acetate, pH 4.5, 1 week): 0.21
- Impurity G (Acetate, pH 4.5, 1 week): 3.17
- Thiorphan (Acetate, pH 4.5, 1 week): 0.02%
- RAC (Acetate, pH 4.5, 1 week): 96.33
- Benz Alcohol (Acetate, pH 4.5, 2 week): 0.4%
- Impurity C (Acetate, pH 4.5, 2 week): 0.4
- Impurity G (Acetate, pH 4.5, 2 week): 6.5
- Thiorphan (Acetate, pH 4.5, 2 week): 0.04%
- RAC (Acetate, pH 4.5, 2 week): 92.61
- Benz Alcohol (Acetate, pH 4.5, 3 week): 0.59%
- Impurity C (Acetate, pH 4.5, 3 week): 0.58
- Impurity G (Acetate, pH 4.5, 3 week): 9.43
- Thiorphan (Acetate, pH 4.5, 3 week): 0.06%
- RAC (Acetate, pH 4.5, 3 week): 89.29
- Benz Alcohol (Acetate, pH 4.5, 4 week): 0.79%
- Impurity C (Acetate, pH 4.5, 4 week): 0.72
- Impurity G (Acetate, pH 4.5, 4 week): 11.84
- Thiorphan (Acetate, pH 4.5, 4 week): 0.11%
- RAC (Acetate, pH 4.5, 4 week): 86.5
- Benz Alcohol (Acetate, pH 4.5, 6 week): 1.14%
- Impurity C (Acetate, pH 4.5, 6 week): 1.04
- Impurity G (Acetate, pH 4.5, 6 week): 17.32
- Thiorphan (Acetate, pH 4.5, 6 week): 0.2%
- RAC (Acetate, pH 4.5, 6 week): 80.25
- Benz Alcohol (Acetate, pH 4.5, 8 week): 1.51%
- Impurity C (Acetate, pH 4.5, 8 week): 1.25
- Impurity G (Acetate, pH 4.5, 8 week): 21.73
- Thiorphan (Acetate, pH 4.5, 8 week): 0.36%
- RAC (Acetate, pH 4.5, 8 week): 75.06
- Benz Alcohol (Acetate, pH 4.5, Initial): 0.02%
- Impurity C (Acetate, pH 4.5, Initial): 0.02
- Impurity G (Acetate, pH 4.5, Initial): 0.21
- Thiorphan (Acetate, pH 4.5, Initial): 0.01%
- RAC (Acetate, pH 4.5, Initial): 99.68
- Benz Alcohol (Citrate, pH 3.6, 1 week): 0.79%
- Impurity C (Citrate, pH 3.6, 1 week): 0.98
- Impurity G (Citrate, pH 3.6, 1 week): 1.78
- Thiorphan (Citrate, pH 3.6, 1 week): 0%
- RAC (Citrate, pH 3.6, 1 week): 96.45
- Benz Alcohol (Citrate, pH 3.6, 2 week): 1.72%
- Impurity C (Citrate, pH 3.6, 2 week): 2.3
- Impurity G (Citrate, pH 3.6, 2 week): 3.81
- Thiorphan (Citrate, pH 3.6, 2 week): 0.13%
- RAC (Citrate, pH 3.6, 2 week): 92.01
- Benz Alcohol (Citrate, pH 3.6, 3 week): 2.59%
- Impurity C (Citrate, pH 3.6, 3 week): 3.36
- Impurity G (Citrate, pH 3.6, 3 week): 5.52
- Thiorphan (Citrate, pH 3.6, 3 week): 0.31%
- RAC (Citrate, pH 3.6, 3 week): 88.22
- Benz Alcohol (Citrate, pH 3.6, 4 week): 3.38%
- Impurity C (Citrate, pH 3.6, 4 week): 4.23
- Impurity G (Citrate, pH 3.6, 4 week): 7.38
- Thiorphan (Citrate, pH 3.6, 4 week): 0.47%
- RAC (Citrate, pH 3.6, 4 week): 84.51
- Benz Alcohol (Citrate, pH 3.6, 6 week): 5.09%
- Impurity C (Citrate, pH 3.6, 6 week): 6.13
- Impurity G (Citrate, pH 3.6, 6 week): 9.72
- Thiorphan (Citrate, pH 3.6, 6 week): 1.11%
- RAC (Citrate, pH 3.6, 6 week): 77.91
- Benz Alcohol (Citrate, pH 3.6, 8 week): 6.64%
- Impurity C (Citrate, pH 3.6, 8 week): 7.54
- Impurity G (Citrate, pH 3.6, 8 week): 12.47
- Thiorphan (Citrate, pH 3.6, 8 week): 1.8%
- RAC (Citrate, pH 3.6, 8 week): 71.51
- Benz Alcohol (Citrate, pH 3.6, Initial): 0%
- Impurity C (Citrate, pH 3.6, Initial): 0
- Impurity G (Citrate, pH 3.6, Initial): 0.09
- Thiorphan (Citrate, pH 3.6, Initial): 0%
- RAC (Citrate, pH 3.6, Initial): 99.91
- Benz Alcohol (Citrate, pH 4.0, 1 week): 0.89%
- Impurity C (Citrate, pH 4.0, 1 week): 1.23
- Impurity G (Citrate, pH 4.0, 1 week): 1.95
- Thiorphan (Citrate, pH 4.0, 1 week): 0%
- RAC (Citrate, pH 4.0, 1 week): 95.93
- Benz Alcohol (Citrate, pH 4.0, 2 week): 1.41%
- Impurity C (Citrate, pH 4.0, 2 week): 1.82
- Impurity G (Citrate, pH 4.0, 2 week): 3.47
- Thiorphan (Citrate, pH 4.0, 2 week): 0.11%
- RAC (Citrate, pH 4.0, 2 week): 93.19
- Benz Alcohol (Citrate, pH 4.0, 3 week): 2.36%
- Impurity C (Citrate, pH 4.0, 3 week): 2.82
- Impurity G (Citrate, pH 4.0, 3 week): 4.79
- Thiorphan (Citrate, pH 4.0, 3 week): 0.21%
- RAC (Citrate, pH 4.0, 3 week): 89.91
- Benz Alcohol (Citrate, pH 4.0, 4 week): 2.79%
- Impurity C (Citrate, pH 4.0, 4 week): 3.43
- Impurity G (Citrate, pH 4.0, 4 week): 6.57
- Thiorphan (Citrate, pH 4.0, 4 week): 0.4%
- RAC (Citrate, pH 4.0, 4 week): 86.78
- Benz Alcohol (Citrate, pH 4.0, 6 week): 4.19%
- Impurity C (Citrate, pH 4.0, 6 week): 4.98
- Impurity G (Citrate, pH 4.0, 6 week): 9.24
- Thiorphan (Citrate, pH 4.0, 6 week): 0.85%
- RAC (Citrate, pH 4.0, 6 week): 80.7
- Benz Alcohol (Citrate, pH 4.0, 8 week): 5.54%
- Impurity C (Citrate, pH 4.0, 8 week): 6.22
- Impurity G (Citrate, pH 4.0, 8 week): 11.26
- Thiorphan (Citrate, pH 4.0, 8 week): 1.42%
- RAC (Citrate, pH 4.0, 8 week): 75.6
- Benz Alcohol (Citrate, pH 4.0, Initial): 0%
- Impurity C (Citrate, pH 4.0, Initial): 0
- Impurity G (Citrate, pH 4.0, Initial): 0
- Thiorphan (Citrate, pH 4.0, Initial): 0%
- RAC (Citrate, pH 4.0, Initial): 100
- Benz Alcohol (Citrate, pH 4.5, 1 week): 0.22%
- Impurity C (Citrate, pH 4.5, 1 week): 0.18
- Impurity G (Citrate, pH 4.5, 1 week): 3.15
- Thiorphan (Citrate, pH 4.5, 1 week): 0.01%
- RAC (Citrate, pH 4.5, 1 week): 96.44
- Benz Alcohol (Citrate, pH 4.5, 2 week): 0.4%
- Impurity C (Citrate, pH 4.5, 2 week): 0.36
- Impurity G (Citrate, pH 4.5, 2 week): 6.04
- Thiorphan (Citrate, pH 4.5, 2 week): 0.03%
- RAC (Citrate, pH 4.5, 2 week): 93.19
- Benz Alcohol (Citrate, pH 4.5, 3 week): 0.59%
- Impurity C (Citrate, pH 4.5, 3 week): 0.52
- Impurity G (Citrate, pH 4.5, 3 week): 8.66
- Thiorphan (Citrate, pH 4.5, 3 week): 0.06%
- RAC (Citrate, pH 4.5, 3 week): 90.2
- Benz Alcohol (Citrate, pH 4.5, 4 week): 0.79%
- Impurity C (Citrate, pH 4.5, 4 week): 0.62
- Impurity G (Citrate, pH 4.5, 4 week): 11.16
- Thiorphan (Citrate, pH 4.5, 4 week): 0.1%
- RAC (Citrate, pH 4.5, 4 week): 87.41
- Benz Alcohol (Citrate, pH 4.5, 6 week): 1.14%
- Impurity C (Citrate, pH 4.5, 6 week): 0.9
- Impurity G (Citrate, pH 4.5, 6 week): 15.86
- Thiorphan (Citrate, pH 4.5, 6 week): 0.17%
- RAC (Citrate, pH 4.5, 6 week): 82.05
- Benz Alcohol (Citrate, pH 4.5, 8 week): 1.51%
- Impurity C (Citrate, pH 4.5, 8 week): 1.11
- Impurity G (Citrate, pH 4.5, 8 week): 19.95
- Thiorphan (Citrate, pH 4.5, 8 week): 0.29%
- RAC (Citrate, pH 4.5, 8 week): 77.34
- Benz Alcohol (Citrate, pH 4.5, Initial): 0.02%
- Impurity C (Citrate, pH 4.5, Initial): 0.01
- Impurity G (Citrate, pH 4.5, Initial): 0.19
- Thiorphan (Citrate, pH 4.5, Initial): 0.01%
- RAC (Citrate, pH 4.5, Initial): 99.71
